Laboratory results as given in patent publication US4788211A, “Antifungal compound and AFC complex produced from actinomadura SCC 1838” (priority 1987, dated 1988).
≈ marks a conversion by molar mass, not a printed value.

Columns and labels:
iv LD50 in mice = settings: mouse, in vivo
Candida = assay: intravaginal Candida infection in hamsters; type: in vivo
[1] = tested on: Dermatophytes (six species); assay: in vitro antifungal activity (geometric mean MIC), dermatophytes; type: cell-based; settings: for MIC: Dermatophytes (six species)
Excerpt: (§1) The in vitro antifungal results are summarized in Table II and provide the geometric mean MIC (mcg/mL).

Candida (seven species) = assay: in vitro antifungal activity (geometric mean MIC), Candida; type: cell-based; settings: for MIC: Candida, Candida (seven species)
Excerpt: as §1

[2] = SDB (Sabouraud dextrose broth medium)

N=C(N)NCCCCCCCCC(O)CCCCCCCC1NC(=N)NC1CC(O)CNC(=N)N (stereo not drawn) [compound of this invention]
LD50 (iv LD50 in mice): ~1.5 mg/kg | activity against an intravaginal Candida infection (Candida): slight activity | MIC ([1]; MA Medium): 2.5 µg/mL (≈ 5.02 µM) | MIC [1, 2]: ≤ 0.13 µg/mL | in vitro antifungal activity ([1]; six species of dermatophytes): very good in vitro antifungal activity | MIC (Candida (seven species); EMEM (Eagles Minimum Essential Medium)): < 0.03 µg/mL | MIC (Candida (seven species); MA Medium): ≤ 1.4 µg/mL | MIC (Candida (seven species); [2]): ≥ 58 µg/mL | in vitro antifungal activity (Candida (seven species); seven species of Candida): very good in vitro antifungal activity
